Data taken from the supplement of paper PMC7645387.
± gives the standard deviation of the averaged measurements.

What was measured:
Experiment in all cases: cell viability relative to DMSO control; higher = less growth inhibition
Conditions in all cases: treatment time: 6 days
HDFB = tested on: HDFB
Description: (§1)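 MCC cell lines (PeTa, MKL-1, MS-1, WaGa) and HDFB fibroblasts were treated for 6 days with serial dilutions (1e-11 to 1e-4 M) of single compounds in quadruplicate. Viability was read by CellTiter-Glo 2.0 and expressed as % of DMSO control.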

WaGa = tested on: WaGa
Description: as §1

MKL-1 = tested on: MKL-1
Description: as §1

PeTa = tested on: PeTa
Description: as §1

MS-1 = tested on: MS-1
Description: as §1

SMILES | cell viability (HDFB; log10 concentration (M): -5) | cell viability (HDFB; log10 concentration (M): -6) | cell viability (HDFB; log10 concentration (M): -7) | cell viability (HDFB; log10 concentration (M): -8) | cell viability (HDFB; log10 concentration (M): -9) | cell viability (HDFB; log10 concentration (M): -10) | cell viability (HDFB; log10 concentration (M): -11) | cell viability (WaGa; log10 concentration (M): -5) | cell viability (WaGa; log10 concentration (M): -6) | cell viability (WaGa; log10 concentration (M): -7) | cell viability (WaGa; log10 concentration (M): -8) | cell viability (WaGa; log10 concentration (M): -9) | cell viability (WaGa; log10 concentration (M): -10) | cell viability (WaGa; log10 concentration (M): -11) | cell viability (MKL-1; log10 concentration (M): -5) | cell viability (MKL-1; log10 concentration (M): -6) | cell viability (MKL-1; log10 concentration (M): -7) | cell viability (MKL-1; log10 concentration (M): -8) | cell viability (MKL-1; log10 concentration (M): -9) | cell viability (MKL-1; log10 concentration (M): -10) | cell viability (MKL-1; log10 concentration (M): -11) | cell viability (PeTa; log10 concentration (M): -5) | cell viability (PeTa; log10 concentration (M): -6) | cell viability (PeTa; log10 concentration (M): -7) | cell viability (PeTa; log10 concentration (M): -8) | cell viability (PeTa; log10 concentration (M): -9) | cell viability (PeTa; log10 concentration (M): -10) | cell viability (PeTa; log10 concentration (M): -11) | cell viability (MS-1; log10 concentration (M): -5) | cell viability (MS-1; log10 concentration (M): -6) | cell viability (MS-1; log10 concentration (M): -7) | cell viability (MS-1; log10 concentration (M): -8) | cell viability (MS-1; log10 concentration (M): -9) | cell viability (MS-1; log10 concentration (M): -10) | cell viability (MS-1; log10 concentration (M): -11) | cell viability (HDFB; log10 concentration (M): -4) | cell viability (MKL-1; log10 concentration (M): -4) | cell viability (PeTa; log10 concentration (M): -4)
c1ccc([C@@H]2C[C@H]2NC2CCNCC2)cc1 [GSK-LSD1] | 97.43 ± 0.88% | 98.5 ± 1.4% | 98.6 ± 3.9% | 99.4 ± 4.2% | 100 ± 1.2% | 105 ± 2.1% | 103 ± 1.1% | 45 ± 5.1% | 49.8 ± 2.1% | 44.1 ± 5.5% | 55.4 ± 1.8% | 76.6 ± 5.2% | 95.6 ± 3% | 97.6 ± 6.1% | 56.1 ± 5.8% | 62 ± 1.4% | 60.1 ± 3.4% | 67.2 ± 1.8% | 87.9 ± 6.7% | 98.1 ± 2.9% | 98.7 ± 1.5% | 28.8 ± 1.3% | 23.1 ± 2.4% | 21.3 ± 0.88% | 28.1 ± 0.85% | 67.8 ± 4.2% | 101 ± 5.4% | 99.1 ± 7.4% | 45.9 ± 1.6% | 45.4 ± 3.8% | 47.6 ± 1.6% | 47.1 ± 3.4% | 74.9 ± 5.8% | 93.1 ± 2.9% | 94.7 ± 3.8% |  |  | 
N[C@H]1CC[C@H](N[C@@H]2C[C@H]2c2ccccc2)CC1 [ORY-1001] | 95.7 ± 2.2% | 97.6 ± 3.9% | 94.1 ± 2.7% | 95.1 ± 2.2% | 96.1 ± 1.3% | 99.58 ± 0.98% | 100 ± 1.3% | 35.1 ± 2.3% | 38.3 ± 4.8% | 39.7 ± 5.1% | 44 ± 5.8% | 63.3 ± 1.2% | 91.5 ± 1.2% | 99.1 ± 0.86% | 39.8 ± 5.9% | 44.9 ± 3.6% | 46.4 ± 4.5% | 62.8 ± 28% | 81 ± 16% | 102 ± 3.2% | 100 ± 4.5% | 22.3 ± 2.8% | 18.2 ± 3.2% | 17.2 ± 0.89% | 16.3 ± 1.2% | 47.5 ± 17% | 102 ± 6.4% | 97.6 ± 4.8% | 47.3 ± 2.2% | 56.8 ± 1.2% | 58.9 ± 5.5% | 57.2 ± 2.4% | 58.8 ± 1.9% | 104 ± 3% | 104 ± 16% |  |  | 
Cc1sc2c(c1C)C(c1ccc(Cl)cc1)=N[C@@H](CC(=O)OC(C)(C)C)c1nnc(C)n1-2 [(+)-JQ1] | 31.7 ± 3.8% | 52 ± 8.2% | 78.7 ± 1.5% | 94.8 ± 1.7% | 106 ± 11% | 110 ± 14% | 99 ± 7.9% |  |  |  |  |  |  |  | 0.0389 ± 0.0064% | 0.0944 ± 0.014% | 20.7 ± 1.3% | 66.8 ± 11% | 89.2 ± 19% | 94.1 ± 1.5% | 93.9 ± 6.4% | 3.47 ± 0.2% | 7.04 ± 0.4% | 21.7 ± 2.3% | 94.3 ± 7.1% | 96.7 ± 12% | 87.4 ± 18% | 100 ± 2.9% |  |  |  |  |  |  |  | 0.0326 ± 0.017% | 0.00849 ± 0.0057% | 0.0148 ± 0.0097%
Nc1ccccc1NC(=O)c1ccc(CNC(=O)OCc2cccnc2)cc1 [Entinostat] | 11 ± 1.8% | 33.8 ± 3.8% | 94.1 ± 3.7% | 102 ± 2.1% | 102 ± 2.9% | 104 ± 4.2% | 104 ± 5.3% |  |  |  |  |  |  |  | 0.0238 ± 0.013% | 0.0511 ± 0.011% | 75 ± 2.7% | 102 ± 2.8% | 102.6 ± 0.8% | 101 ± 2.3% | 102 ± 1.3% | 0.0605 ± 0.051% | 0.0805 ± 0.058% | 50.9 ± 3.8% | 94.9 ± 2.8% | 98.1 ± 5.3% | 102 ± 2% | 108 ± 4.7% |  |  |  |  |  |  |  | 0.192 ± 0.057% | 0.0104 ± 0.0078% | 0.0531 ± 0.016%
Cc1cc2c(cc1N1C(=O)c3cccc4c(CCCO)ccc(c34)C1=O)n(C)c(=O)n2C [BAY299] | 78.5 ± 3.7% | 74.1 ± 2.2% | 92.1 ± 3.5% | 100 ± 12% | 97.5 ± 6.5% | 100 ± 9.7% | 99.3 ± 4% |  |  |  |  |  |  |  | 0.557 ± 0.05% | 20.6 ± 2.8% | 102 ± 15% | 88.4 ± 4.3% | 111 ± 13% | 101 ± 15% | 92.3 ± 18% | 2.01 ± 0.19% | 37.3 ± 4.9% | 88.5 ± 20% | 92.1 ± 19% | 94.4 ± 17% | 103 ± 18% | 95.8 ± 12% |  |  |  |  |  |  |  | 31.2 ± 1.8% | 0.0297 ± 0.015% | 0.141 ± 0.02%
